Positions of bridges follow the written chain, without caps; N, C: chain ends. Residues, ends and D or L forms follow the SMILES beside them.
Assays:
[1] = All pain tests conducted (overall); assay type: in vivo, ICR mice; settings: i.m.
Procedure: Adult male ICR mice (Animal Breeding Facility Branch of Shemyakin–Ovchinnikov Institute of Bioorganic Chemistry, Russian Academy of Sciences, Pushchino, Russia), weighing 20–25 g, were utilized. Animals were housed under controlled conditions, with a room temperature of 23 ± 2 °C, a 12 h light–dark cycle, and ad libitum access to food and water. Test substances were dissolved in saline. Peptides (Ugr9-1 and A23K at doses of 0.002, 0.02, and 0.2 mg/kg) and saline (for the control group) were administered intramuscularly 60 min prior to testing.
The abdominal constriction test of visceral pain (acetic acid-induced writhing pain model) and hyperalgesia induced by complete Freund’s adjuvant (CFA-induced inflammatory pain model) were performed as previously described.
For the von Frey filaments test, mice were positioned in a plastic chamber with access to the inflamed hind paw surface and an electronic von Frey filament (BIO-EVF, Bioseb, Vitrolles, France) was applied with gradually increasing pressure until withdrawal. Data, expressed as the strength of the applied mechanical stimulus from three applications, were averaged, with intervals between exposures of at least 1 min.
Statistical analysis was conducted using analysis of variance (ANOVA) with post hoc Tukey’s test, and data are presented as mean ± standard deviation (S.D.).

[2] = target: T1, rat ASIC1a/3 heteromeric channels (Rattus norvegicus, UniProt O35240+P55926); test: Two-electrode voltage clamp, rat ASIC1a/3 heteromeric channels in X. laevis oocytes; assay type: cell-based
T1 construct: expressed in transfected cells; host or cells: Xenopus laevis oocytes co-injected with ASIC1a and ASIC3 mRNA (1:5)
T1 sequence (P55926 1-526): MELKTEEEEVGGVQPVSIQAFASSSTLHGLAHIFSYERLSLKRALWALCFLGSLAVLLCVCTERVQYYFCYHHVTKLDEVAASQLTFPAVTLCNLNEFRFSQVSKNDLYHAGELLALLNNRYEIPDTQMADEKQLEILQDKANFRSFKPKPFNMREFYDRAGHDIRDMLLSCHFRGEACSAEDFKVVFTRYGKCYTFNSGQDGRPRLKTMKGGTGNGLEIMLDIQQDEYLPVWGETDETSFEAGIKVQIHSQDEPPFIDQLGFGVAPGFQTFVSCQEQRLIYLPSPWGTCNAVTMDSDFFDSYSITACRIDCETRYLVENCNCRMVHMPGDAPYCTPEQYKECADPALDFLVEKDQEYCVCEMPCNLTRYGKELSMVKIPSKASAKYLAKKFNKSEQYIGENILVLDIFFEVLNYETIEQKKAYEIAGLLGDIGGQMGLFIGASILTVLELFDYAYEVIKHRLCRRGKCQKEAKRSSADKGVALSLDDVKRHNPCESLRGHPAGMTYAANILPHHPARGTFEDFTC
T1 sequence (O35240 1-533): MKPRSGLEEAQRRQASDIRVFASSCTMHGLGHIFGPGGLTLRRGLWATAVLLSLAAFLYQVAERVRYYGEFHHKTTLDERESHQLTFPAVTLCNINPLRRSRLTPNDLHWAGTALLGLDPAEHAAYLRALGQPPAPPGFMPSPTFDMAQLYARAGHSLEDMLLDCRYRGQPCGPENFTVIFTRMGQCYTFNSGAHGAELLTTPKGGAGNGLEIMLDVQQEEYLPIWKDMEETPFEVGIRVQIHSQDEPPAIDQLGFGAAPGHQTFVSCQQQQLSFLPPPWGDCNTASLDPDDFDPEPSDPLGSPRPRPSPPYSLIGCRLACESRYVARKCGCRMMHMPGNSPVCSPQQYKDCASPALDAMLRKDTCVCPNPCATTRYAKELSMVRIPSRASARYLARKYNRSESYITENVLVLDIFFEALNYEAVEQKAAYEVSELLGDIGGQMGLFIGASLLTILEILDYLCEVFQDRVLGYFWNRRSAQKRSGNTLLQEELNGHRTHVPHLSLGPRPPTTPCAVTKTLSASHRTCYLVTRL
Excerpt: Figure 4 The effect of the mutant peptide A23K on rat heteromeric ASIC1a/3 channels. […] The depicted currents were induced by a pH 5.5 stimulus following a conditioning pH of 7.4, with the peptide applied for 30 s before the pH stimulus. (B) Dose–response curve for the inhibitory effect of the mutant peptide. Each data point represents data from 6 cells. Data are presented as mean ± S.E.M.
A small portion of the ovary was isolated from frogs under anesthesia induced by a 0.17% solution of procaine methanesulphonate (MS222) (Sigma), followed by treatment with collagenase (1 mg/mL) at room temperature for 2 h. Oocytes at stages IV and V, devoid of follicular membranes, were transferred to ND-96 medium (containing 96 mM NaCl, 5 mM HEPES, 2 mM KCl, 1.8 mM CaCl2, 1 mM MgCl2, pH 7.4). mRNA synthesis was performed from pcDNA3.1 vectors (Invitrogen, Carlsbad, CA, USA) containing the rat ASIC3 gene, as well as pCI vectors containing genes for rat ASIC1a, its mutant analogues, and ASIC1b. mRNA (2.5–10 ng) was then injected into the oocytes. For the ASIC1a/3 heteromeric channels, the mRNA encoding the ASIC1a and ASIC3 subunits were injected in a 1:5 ratio, respectively. Subsequently, the oocytes were incubated for 2–3 days at a temperature of 17–19 °C in ND96 medium supplemented with gentamicin and streptomycin (20 µg/mL each).
Whole-cell electrophysiological recordings of ASIC channels were conducted using a two-electrode voltage-clamp setup. Microelectrodes were filled with 3 M KCl. Recordings from oocytes were carried out at a holding potential of −50 mV, with data filtered at 10 Hz and sampled at a rate of 100 Hz using an L780M ADC (LCard, Moscow, Russia). The synchronized delivery of solutions into the chamber and recording of electrophysiological results were carried out using in-house software v.2. Activation of ASIC channels occurred through rapid pH changes in the solution, achieved by replacing the working solution in the chamber with ND96-based solutions at varying pH levels. Specifically, HEPES was substituted with 10 mM MES for pH 5.5–6.5 and MOPS for pH 6.7–7.0.
Fresh peptide solutions were meticulously prepared in ND96 buffer with a pH of 7.43 immediately before experiments, with strict control over the pH levels. Peptides were applied for 30 s at a conditioning pH of 7.43 before acid stimulation of the channel. The interval between applications was maintained at a minimum of 1.5 to 2 min.
Electrophysiological data analysis was conducted using OriginPro 2018 software (OriginLab, Northampton, MA, USA). Dose–response relationships for Ugr9a-1, S16K, and A23K peptides were fitted using a Hill function: F1(x) = A − A/(1 + (x/IC50)^nH), where F1(x) represents the amplitude of the current at concentration x of the peptide, A is the maximum amplitude of the current, IC50 is the half-maximum inhibitory concentration of the peptide, and nH is the Hill coefficient.

[3] = system: ASIC3 channels; settings: ref [18],[19],[20]; cited from earlier work
Excerpt: The 29-amino acid peptide Ugr9a-1, isolated from the venom of the northern sea anemone Urticina grebelnyi, represents a structural class of toxins termed “boundless β-hairpin”.

Row | Structure (SMILES) | analgesic effect compared to the wild-type peptide [1] | inhibitory effect on heteromeric channels compared to homomeric ASIC1a ([2]; ASIC1a/3 versus homomeric ASIC1a) | inhibitory effect on heteromeric channels compared to homomeric ASIC3 ([2]; ASIC1a/3 versus homomeric ASIC3) | nH ([2]; inhibition of rat ASIC1a/3, pH 5.5 stimulus, conditioning pH 7.4, mean ± S.E.M., 6 cells) | IC50 ([2]; rat ASIC1a/3 heteromer, X. laevis oocytes (mRNA 1:5), pH 5.5 stimulus, conditioning pH 7.4, peptide 30 s, mean ± S.E.M., 6 cells) [µM] | wash procedure required to restore ASIC1a/3 function ([2]; washout after peptide) | modulation of ASIC3 channels [3]
1 | CC[C@H](C)[C@H](N)C(=O)N[C@@H](CO)C(=O)N[C@H](C(=O)N[C@@H](CC(=O)O)C(=O)N1CCC[C@H]1C(=O)N1CCC[C@H]1C(=O)N[C@H]1CSSC[C@@H]2NC(=O)[C@H](CC(N)=O)NC(=O)CNC(=O)[C@H](CO)NC(=O)CNC(=O)[C@H](CC(=O)O)NC(=O)[C@H](CCCNC(=N)N)NC(=O)[C@H](Cc3c[nH]cn3)NC(=O)[C@H](Cc3ccc(O)cc3)NC(=O)[C@H](CSSC[C@@H](C(=O)NCC(=O)N[C@@H](C)C(=O)N[C@H](C(=O)O)C(C)C)NC(=O)CNC(=O)[C@H](Cc3ccc(O)cc3)NC(=O)[C@H](CCCCN)NC(=O)[C@H](CC(=O)O)NC(=O)[C@H](Cc3ccc(O)cc3)NC(=O)[C@H](C(C)C)NC2=O)NC(=O)[C@H](Cc2ccccc2)NC(=O)[C@H](CCCNC(=N)N)NC1=O)[C@@H](C)CC [A23K] (H-ISIDPPCRFCYHRDGSGNCVYDKYGCGAV-OH; disulfide 7-19, 10-26) | significantly less pronounced analgesic effect compared to the wild-type peptide | approximately 1.6 -fold | ~2.2 -fold | 1.6 ± 0.2 | 4.2 ± 0.6 | extended wash procedure required to restore ASIC1a/3 function | 
2 | CC[C@H](C)[C@H](N)C(=O)N[C@@H](CO)C(=O)N[C@H](C(=O)N[C@@H](CC(=O)O)C(=O)N1CCC[C@H]1C(=O)N1CCC[C@H]1C(=O)N[C@H]1CSSC[C@@H]2NC(=O)[C@H](CC(N)=O)NC(=O)CNC(=O)[C@H](CO)NC(=O)CNC(=O)[C@H](CC(=O)O)NC(=O)[C@H](CCCNC(=N)N)NC(=O)[C@H](Cc3c[nH]cn3)NC(=O)[C@H](Cc3ccc(O)cc3)NC(=O)[C@H](CSSC[C@@H](C(=O)NCC(=O)N[C@@H](C)C(=O)N[C@H](C(=O)O)C(C)C)NC(=O)CNC(=O)[C@H](Cc3ccc(O)cc3)NC(=O)[C@H](C)NC(=O)[C@H](CC(=O)O)NC(=O)[C@H](Cc3ccc(O)cc3)NC(=O)[C@H](C(C)C)NC2=O)NC(=O)[C@H](Cc2ccccc2)NC(=O)[C@H](CCCNC(=N)N)NC1=O)[C@@H](C)CC [Ugr9-1] (H-ISIDPPCRFCYHRDGSGNCVYDAYGCGAV-OH; disulfide 7-19, 10-26) |  |  |  |  |  |  | selectively modulates ASIC3 channels

Source: PMC11432795, “Mutagenesis of the Peptide Inhibitor of ASIC3 Channel Introduces Binding to Thumb Domain of ASIC1a but Reduces Analgesic Activity” (Marine Drugs, 2024)
